Test system: yeast genes (level of expressed mRNA)
Assay: DNA chip analysis of expressed mRNA of yeast genes after 2 h culture with a toxic chemical substance
Assay type: cell-based, Saccharomyces cerevisiae S288C
Conditions: for The level of expressed mRNA in the presence of chemical substance/ (ratio to absence of chemical substance): stress protein genes, DNA chip; for The level of expressed mRNA in the presence of chemical substance/ in its absence, gene YPR184W: yeast gene YPR184W
Summary of the method: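 S. cerevisiae S288C grown at 25° C in YPD; toxicant added at log phase at growth-inhibitory, non-lethal levels for 2 h, untreated cells as control. Poly(A) mRNA reverse-transcribed with Cy3/Cy5-dUTP, hybridized to whole-genome chip at 65° C >12 h; value is fluorescence ratio versus untreated.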

SMILES: S=C([S-])NCCNC(=S)[S-].[Zn+2] [(11), zinc N,N′-ethylenebis(dithiocarbamate)]
- The level of expressed mRNA in the presence of chemical substance/ (in its absence), gene YMR293C (yeast gene YMR293C, ratio of DNA chip fluorescence intensity to that without chemical substance): 0.4
- The level of expressed mRNA in the presence of chemical substance/The level of expressed mRNA in the absence of chemical substance (yeast gene YMR314W): 1.8
- The level of expressed mRNA in the presence of chemical substance/The level of expressed mRNA in the absence of chemical substance (yeast gene YNL006W): 1.1
- The level of expressed mRNA in the presence of chemical substance/The level of expressed mRNA in the absence of chemical substance (yeast gene YNL007C): 1.3
- The level of expressed mRNA in the presence of chemical substance/ (in its absence), gene YNL025C (yeast gene YNL025C, ratio of DNA chip fluorescence intensity to that without chemical substance): 1.1
- The level of expressed mRNA in the presence of chemical substance/ (ratio to absence of chemical substance) (yeast gene YNL064C): 0.9
- The level of expressed mRNA in the presence of chemical substance/ (ratio to absence), gene YNL073W (yeast gene YNL073W, mitochondria-located protein genes, 2 h culture with chemical): 1.1
- The level of expressed mRNA in the presence of chemical substance/The level of expressed mRNA in the absence of chemical substance (yeast gene YNL093W): 1.6
- The level of expressed mRNA in the presence of chemical substance/ (in its absence), gene YNL192W (yeast gene YNL192W, ratio of DNA chip fluorescence intensity to that without chemical substance): 1.1
- The level of expressed mRNA in the presence of chemical substance/The level of expressed mRNA in the absence of chemical substance (yeast gene YNL333W): 2.0
- The level of expressed mRNA in the presence of chemical substance/The level of expressed mRNA in the absence of chemical substance (yeast gene YNR010W): 1.4
- The level of expressed mRNA in the presence of chemical substance/The level of expressed mRNA in the absence of chemical substance (yeast gene YNR069C): 2.5
- The level of expressed mRNA in the presence of chemical substance/ (in its absence), gene YNR072W (yeast gene YNR072W, ratio of DNA chip fluorescence intensity to that without chemical substance): 1.4
- The level of expressed mRNA in the presence of chemical substance/ (ratio to absence of chemical substance) (yeast gene YNR076W): 1.4
- The level of expressed mRNA in the presence of chemical substance/The level of expressed mRNA in the absence of chemical substance (yeast gene YOL013C): 1.4
- The level of expressed mRNA in the presence of chemical substance/ (ratio to absence), gene YOL096C (yeast gene YOL096C, mitochondria-located protein genes, 2 h culture with chemical): 1.2
- The level of expressed mRNA in the presence of chemical substance/ (in its absence), gene YOL096C (yeast gene YOL096C, ratio of DNA chip fluorescence intensity to that without chemical substance): 1.2
- The level of expressed mRNA in the presence of chemical substance/ (in its absence), gene YOL108C (yeast gene YOL108C, ratio of DNA chip fluorescence intensity to that without chemical substance): 1.1
- The level of expressed mRNA in the presence of chemical substance/ (in its absence), gene YOL116W (yeast gene YOL116W, ratio of DNA chip fluorescence intensity to that without chemical substance): 1.0
- The level of expressed mRNA in the presence of chemical substance/ (ratio to absence of chemical substance) (yeast gene YOL161C): 1.5
- The level of expressed mRNA in the presence of chemical substance/The level of expressed mRNA in the absence of chemical substance (yeast gene YOL164W): 1.0
- The level of expressed mRNA in the presence of chemical substance/ (ratio to absence of chemical substance) (yeast gene YOR008C): 1.0
- The level of expressed mRNA in the presence of chemical substance/ (ratio to absence of chemical substance) (yeast gene YOR009W): 1.4
- The level of expressed mRNA in the presence of chemical substance/ (ratio to absence of chemical substance) (yeast gene YOR010C): 1.2
- The level of expressed mRNA in the presence of chemical substance/The level of expressed mRNA in the absence of chemical substance (yeast gene YOR036W): 1.3
- The level of expressed mRNA in the presence of chemical substance/ (in its absence), gene YOR103C (yeast gene YOR103C, ratio of DNA chip fluorescence intensity to that without chemical substance): 1.0
- The level of expressed mRNA in the presence of chemical substance/The level of expressed mRNA in the absence of chemical substance (yeast gene YOR117W): 1.2
- The level of expressed mRNA in the presence of chemical substance/The level of expressed mRNA in the absence of chemical substance (yeast gene YOR124C): 1.2
- The level of expressed mRNA in the presence of chemical substance/The level of expressed mRNA in the absence of chemical substance (yeast gene YOR132W): 1.3
- The level of expressed mRNA in the presence of chemical substance/The level of expressed mRNA in the absence of chemical substance (yeast gene YOR157C): 1.6
- The level of expressed mRNA in the presence of chemical substance/ (in its absence), gene YOR180C (yeast gene YOR180C, ratio of DNA chip fluorescence intensity to that without chemical substance): 0.6
- The level of expressed mRNA in the presence of chemical substance/The level of expressed mRNA in the absence of chemical substance (yeast gene YOR181W): 1.0
- The level of expressed mRNA in the presence of chemical substance/The level of expressed mRNA in the absence of chemical substance (yeast gene YOR185C): 1.2
- The level of expressed mRNA in the presence of chemical substance/The level of expressed mRNA in the absence of chemical substance (yeast gene YOR198C): 1.4
- The level of expressed mRNA in the presence of chemical substance/ (in its absence), gene YOR251C (yeast gene YOR251C, ratio of DNA chip fluorescence intensity to that without chemical substance): 1.0
- The level of expressed mRNA in the presence of chemical substance/The level of expressed mRNA in the absence of chemical substance (yeast gene YOR259C): 1.0
- The level of expressed mRNA in the presence of chemical substance/The level of expressed mRNA in the absence of chemical substance (yeast gene YOR261C): 2.1
- The level of expressed mRNA in the presence of chemical substance/The level of expressed mRNA in the absence of chemical substance (yeast gene YOR288C): 1.4
- The level of expressed mRNA in the presence of chemical substance/ (ratio to absence), gene YOR316C (yeast gene YOR316C, mitochondria-located protein genes, 2 h culture with chemical): 2.4
- The level of expressed mRNA in the presence of chemical substance/ (in its absence), gene YOR348C (yeast gene YOR348C, ratio of DNA chip fluorescence intensity to that without chemical substance): 1.1
- The level of expressed mRNA in the presence of chemical substance/The level of expressed mRNA in the absence of chemical substance (yeast gene YOR355W): 1.2
- The level of expressed mRNA in the presence of chemical substance/ (in its absence), gene YOR363C (yeast gene YOR363C, ratio of DNA chip fluorescence intensity to that without chemical substance): 1.2
- The level of expressed mRNA in the presence of chemical substance/The level of expressed mRNA in the absence of chemical substance (yeast gene YOR383C): 1.4
- The level of expressed mRNA in the presence of chemical substance/ (ratio to absence), gene YPL040C (yeast gene YPL040C, mitochondria-located protein genes, 2 h culture with chemical): 0.9
- The level of expressed mRNA in the presence of chemical substance/ (ratio to absence of chemical substance) (yeast gene YPL059W): 1.6
- The level of expressed mRNA in the presence of chemical substance/The level of expressed mRNA in the absence of chemical substance (yeast gene YPL089C): 0.9
- The level of expressed mRNA in the presence of chemical substance/ (ratio to absence), gene YPL134C (yeast gene YPL134C, mitochondria-located protein genes, 2 h culture with chemical): 1.7
- The level of expressed mRNA in the presence of chemical substance/ (ratio to absence of chemical substance) (yeast gene YPL140C): 0.8
- The level of expressed mRNA in the presence of chemical substance/ (in its absence), gene YPL148C (yeast gene YPL148C, ratio of DNA chip fluorescence intensity to that without chemical substance): 3.5
- The level of expressed mRNA in the presence of chemical substance/The level of expressed mRNA in the absence of chemical substance (yeast gene YPL149W): 1.2
- The level of expressed mRNA in the presence of chemical substance/The level of expressed mRNA in the absence of chemical substance (yeast gene YPL154C): 1.8
- The level of expressed mRNA in the presence of chemical substance/ (ratio to absence of chemical substance) (yeast gene YPL194W): 0.9
- The level of expressed mRNA in the presence of chemical substance/ (ratio to absence of chemical substance) (yeast gene YPR005C): 0.4
- The level of expressed mRNA in the presence of chemical substance/The level of expressed mRNA in the absence of chemical substance (yeast gene YPR103W): 0.9
- The level of expressed mRNA in the presence of chemical substance/The level of expressed mRNA in the absence of chemical substance (yeast gene YPR108W): 1.8
- The level of expressed mRNA in the presence of chemical substance/ (in its absence), gene YPR165W (yeast gene YPR165W, ratio of DNA chip fluorescence intensity to that without chemical substance): 1.0
- The level of expressed mRNA in the presence of chemical substance/ in its absence, gene YPR184W (energy system protein genes, 2 h culture with the chemical, ratio to control without chemical): 3.6
- The level of expressed mRNA in the presence of chemical substance/ in its absence, gene YPR184W (ratio of DNA chip fluorescence intensity to that without chemical substance): 3.6
